Results on 34 compounds are retold here after a polymer gas permeability compilation.

For `*c1ccc(-c2ccc(Oc3ccc(C4(c5ccc(Oc6ccc(-c7ccc(N8C(=O)c9ccc(Oc%10ccc(C(C)(C)c%11ccc(Oc%12ccc%13c(c%12)C(=O)N(*)C%13=O)cc%11)cc%10)cc9C8=O)cc7)cc6C(F)(F)F)cc5)c5ccccc5C(=O)N4c4ccccc4)cc3)c(C(F)(F)F)c2)cc1` (repeat unit), the CH4 permeability was found to be 0.84 Barrer, the CO2 permeability turned out to be 16.6 Barrer, the N2 permeability was determined as 0.95 Barrer and the O2 permeability worked out at 4.25 Barrer.
The compound `*c1ccc2c(c1)C(=O)n1c-2nc2ccc(Oc3ccc4c(c3)nc3n4C(=O)c4ccc(*)cc4-3)cc21` (repeat unit) registered an H2 permeability of 6.56 Barrer, an N2 permeability of 0.023 Barrer and an O2 permeability of 0.24 Barrer.
`*Oc1ccc(C(C)(C)c2ccc(OC(=O)c3cc(C(*)=O)cc(C(C)(C)C)c3)cc2)cc1` (repeat unit) came in with a CH4 permeability of 1.43 Barrer, a CO2 permeability of 24.2 Barrer, an H2 permeability of 41.9 Barrer and an N2 permeability of 1.18 Barrer. The compound also returned an O2 permeability of 5.95 Barrer.
For `*c1c(C)cc(C)c(N2C(=O)c3ccc(Oc4ccc(Oc5ccc6c(c5)C(=O)N(*)C6=O)cc4)cc3C2=O)c1C` (repeat unit), the H2 permeability is 40 Barrer, the N2 permeability was determined as 0.732 Barrer and the O2 permeability worked out at 4.42 Barrer.
As for `*CC(*)(C)c1ccccc1` (repeat unit), the CH4 permeability was determined as 0.14 Barrer, the CO2 permeability is 3 Barrer, the N2 permeability was determined as 0.15 Barrer and the O2 permeability stood at 0.82 Barrer.
`*c1c(C)cc(-c2cc(C)c(N3C(=O)c4ccc(Oc5cc(C(C)(C)C)c(Oc6ccc7c(c6)C(=O)N(*)C7=O)cc5C(C)(C)C)cc4C3=O)c(C)c2)cc1C` (repeat unit) gave a CH4 permeability of 5.6 Barrer, a CO2 permeability of 95 Barrer, an H2 permeability of 150 Barrer and an N2 permeability of 4.9 Barrer. Also, the O2 permeability was 22 Barrer.
In turn, `*c1cccc(Oc2cccc(-n3c(=O)c4cc5c(=O)n(*)c(=O)c5cc4c3=O)c2)c1` (repeat unit) returned a CH4 permeability of 0.008 Barrer, a CO2 permeability of 0.5 Barrer, an H2 permeability of 3.6 Barrer and an N2 permeability of 0.0181 Barrer. The same compound displayed an O2 permeability of 0.13 Barrer.
Turning to `*c1c(C)c(C)c(N2C(=O)c3cc4c(cc3C2=O)C2(CC(C)(C)c3cc5c(cc32)C(=O)N(*)C5=O)CC4(C)C)c(C)c1C` (repeat unit), the CH4 permeability turned out to be 390 Barrer, the CO2 permeability was determined as 3940 Barrer, the H2 permeability was 1920 Barrer and the N2 permeability is 257 Barrer. Besides, the O2 permeability came to 722 Barrer.
Compound `*C(F)(F)C(*)(F)F` (repeat unit) showed a CH4 permeability of 10 Barrer, a CO2 permeability of 12.7 Barrer and an O2 permeability of 4.9 Barrer.
On to `*Oc1ccc(C2(c3ccc(OC(=O)c4cccc(C(*)=O)c4)cc3)OC(=O)c3ccccc32)cc1` (repeat unit), for which the CH4 permeability amounted to 0.251 Barrer, the CO2 permeability is 7.87 Barrer, the H2 permeability amounted to 17.2 Barrer and the N2 permeability stood at 0.303 Barrer. The O2 permeability was 1.78 Barrer.
On to `*c1ccc(C(c2ccc(N3C(=O)c4ccc(-c5ccc6c(c5)C(=O)N(*)C6=O)cc4C3=O)cc2)(C(F)(F)F)C(F)(F)F)cc1` (repeat unit), for which the CH4 permeability was 0.611 Barrer, the CO2 permeability was found to be 22.1 Barrer, the N2 permeability stood at 0.979 Barrer and the O2 permeability came to 5.22 Barrer.
In turn, `*Oc1ccc(S(=O)(=O)c2ccc(Oc3ccc(C(C)(C)c4ccc(*)cc4)cc3N)cc2)cc1` (repeat unit) came in with a CH4 permeability of 0.12 Barrer, a CO2 permeability of 2.95 Barrer, an N2 permeability of 0.12 Barrer and an O2 permeability of 0.745 Barrer.
For `*c1ccc(-c2ccc(Oc3ccc(C4(c5ccc(Oc6ccc(-c7ccc(-n8c(=O)c9cc%10c(=O)n(*)c(=O)c%10cc9c8=O)cc7)cc6C(F)(F)F)cc5)c5ccccc5C(=O)N4c4ccccc4)cc3)c(C(F)(F)F)c2)cc1` (repeat unit), the CH4 permeability came out at 0.79 Barrer, the CO2 permeability was 39.6 Barrer, the N2 permeability came out at 1.2 Barrer and the O2 permeability was found to be 7.62 Barrer.
Turning to `*C(=C(*)c1cccc(O[Si](C)(C)C(C)(C)C)c1)c1ccc(C(C)(C)C)cc1` (repeat unit), the CH4 permeability came out at 3300 Barrer, the CO2 permeability was 7200 Barrer, the H2 permeability was 3900 Barrer and the N2 permeability stood at 1300 Barrer. Moreover, the O2 permeability was 2100 Barrer.
`*O[Si](C)(C)CC[Si](*)(C)C` (repeat unit): the CH4 permeability turned out to be 597 Barrer, the CO2 permeability came to 1880 Barrer and the O2 permeability came to 394 Barrer.
For `*Oc1ccc(S(=O)(=O)c2ccc(Oc3ccc(C(C)(C)c4ccc(*)cc4)cc3CN)cc2)cc1` (repeat unit), the CH4 permeability stood at 0.11 Barrer, the CO2 permeability was determined as 1.95 Barrer, the N2 permeability is 0.11 Barrer and the O2 permeability was 0.7 Barrer.
Take `*c1c(C)cc2c(c1C)C1c3ccccc3C2c2cc(C)c(-n3c(=O)c4cc5oc6cc7c(cc6oc5cc4c3=O)C3(C(C)C)c4ccccc4C7(C(C)C)c4cc5oc6cc7c(=O)n(*)c(=O)c7cc6oc5cc43)c(C)c21` (repeat unit): the CH4 permeability came to 395 Barrer, the CO2 permeability was determined as 5010 Barrer, the H2 permeability was 4140 Barrer and the N2 permeability was 306 Barrer. In addition, the O2 permeability is 1150 Barrer.
Taken in the same sequence, the figures for `*Oc1ccc(C(c2ccc(OC(*)=O)cc2)(C(F)(F)F)C(F)(F)F)cc1` (repeat unit) were 1.05 Barrer, 24 Barrer, 27 Barrer, 1.7 Barrer and 6.9 Barrer.
`*Nc1ccc(C(=O)c2ccc(NC(=O)c3cc(C(*)=O)cc(C(C)(C)C)c3)cc2)cc1` (repeat unit) registered a CO2 permeability of 4.96 Barrer, an N2 permeability of 0.23 Barrer and an O2 permeability of 1.16 Barrer.
As for `*c1ccc(*)n1C` (repeat unit), the CH4 permeability was determined as 0.22 Barrer, the CO2 permeability came out at 6.9 Barrer, the N2 permeability was determined as 0.33 Barrer and the O2 permeability was 2.04 Barrer.
The compound `*c1c(C)cc(C)c(N2C(=O)c3ccc(-c4ccc5c(c4)C(=O)N(*)C5=O)cc3C2=O)c1C` (repeat unit) came in with a CH4 permeability of 8 Barrer, a CO2 permeability of 182 Barrer, an H2 permeability of 210 Barrer and an N2 permeability of 7.5 Barrer. This compound had an O2 permeability of 32 Barrer.
In turn, `*CC(*)OC1CC2CCC1C2` (repeat unit) showed a CO2 permeability of 25 Barrer, an N2 permeability of 0.96 Barrer and an O2 permeability of 3.55 Barrer.
In turn, `*c1ccc(Cc2ccc(N3C(=O)c4ccc(C(=O)c5ccc6c(c5)C(=O)N(*)C6=O)cc4C3=O)cc2)cc1` (repeat unit) showed an H2 permeability of 4.03 Barrer, an N2 permeability of 0.02 Barrer and an O2 permeability of 0.211 Barrer.
As for `*Oc1c(C)cc(*)c(C(=O)c2ccccc2)c1C` (repeat unit), the CH4 permeability came out at 0.95 Barrer, the CO2 permeability turned out to be 14.3 Barrer, the N2 permeability stood at 1.59 Barrer and the O2 permeability came out at 6 Barrer.
For `*Oc1ccc(Oc2ccc(C(=O)c3ccc(*)cc3)cc2)cc1C(C)(C)C` (repeat unit), the CH4 permeability amounted to 0.221 Barrer, the CO2 permeability worked out at 4.65 Barrer, the N2 permeability worked out at 0.217 Barrer and the O2 permeability was determined as 1.39 Barrer.
The matching figures for `*c1ccc(Oc2ccc(S(=O)(=O)c3ccc(Oc4ccc(N5C(=O)c6ccc(-c7ccc8c(c7)C(=O)N(*)C8=O)cc6C5=O)cc4)cc3)cc2)cc1` (repeat unit): 0.0397 Barrer, 1.85 Barrer, 0.0544 Barrer and 0.368 Barrer.
Taken in the same sequence, the figures for `*OC(=O)c1ccc(C(=O)Oc2ccc(C(C)(C)c3ccc(O*)c(C)c3)cc2C)cc1` (repeat unit) were 0.17 Barrer, 5.8 Barrer, 0.23 Barrer and 1.12 Barrer.
On to `*c1cc2c(cc1C)-c1cc(C)c(N3C(=O)c4ccc(C(c5ccc6c(c5)C(=O)N(*)C6=O)(C(F)(F)F)C(F)(F)F)cc4C3=O)cc1S2(=O)=O` (repeat unit), for which the CH4 permeability turned out to be 1.74 Barrer, the CO2 permeability was determined as 73.5 Barrer, the H2 permeability turned out to be 156 Barrer and the N2 permeability was 3.27 Barrer. The O2 permeability is 16.5 Barrer.
The matching figures for `*Oc1cc(C)c(C2(c3cc(C(C)C)c(Oc4ccc(S(=O)(=O)c5ccc(*)cc5)cc4)cc3C)OC(=O)c3ccccc32)cc1C(C)C` (repeat unit): 0.928 Barrer, 19.4 Barrer, 30.6 Barrer, 0.699 Barrer and 4.85 Barrer.
The compound `*Nc1ccc(C(c2ccc(NC(=O)c3ccc(Oc4cc(C(C)(C)C)c(Oc5ccc(C(*)=O)cc5)cc4C(C)(C)C)cc3)cc2)(C(F)(F)F)C(F)(F)F)cc1` (repeat unit) came in with a CH4 permeability of 1.24 Barrer, a CO2 permeability of 36 Barrer, an N2 permeability of 1.51 Barrer and an O2 permeability of 7.88 Barrer.
Turning to `*C(=C(*)c1ccc([Si](C)(C)C)cc1)c1ccccc1` (repeat unit), the CH4 permeability came out at 1550 Barrer, the CO2 permeability was determined as 4700 Barrer, the H2 permeability came to 2600 Barrer and the N2 permeability is 550 Barrer. This compound also registered an O2 permeability of 1200 Barrer.
`*C(C)=C(*)CCCCC` (repeat unit) displayed a CH4 permeability of 51 Barrer, a CO2 permeability of 200 Barrer, an H2 permeability of 150 Barrer and an N2 permeability of 21 Barrer. In addition, the O2 permeability came out at 57 Barrer.
The matching figures for `*c1ccc(-c2ccc(N3C(=O)c4ccc(Oc5cc(C(C)(C)C)ccc5Oc5ccc6c(c5)C(=O)N(*)C6=O)cc4C3=O)c(OC)c2)cc1OC` (repeat unit): 0.16 Barrer, 6.7 Barrer, 22 Barrer, 0.21 Barrer and 1.4 Barrer.
The compound `*CC[Si](C)(C)c1ccc([Si](*)(C)C)cc1` (repeat unit) yielded a CH4 permeability of 0.53 Barrer, a CO2 permeability of 4.01 Barrer, an N2 permeability of 0.257 Barrer and an O2 permeability of 1.11 Barrer.
